# US7468391B2, “Methods for treating retinoid responsive disorders using selective inhibitors of CYP26A and CYP26B” (Allergan, Inc., priority 2003, dated 2008)
# Columns and labels:
# RAR β [1] = target: T1, RAR β (Homo sapiens, UniProt P10826); assay: RAR β EC50/(efficacy); format: cell-based; details: for EC50: first item of cell EC50/(EFFICACY)/Kd; for RAR β (EFFICACY): value in brackets of cell EC50/(EFFICACY)/Kd
# T1 sequence (P10826 1-455): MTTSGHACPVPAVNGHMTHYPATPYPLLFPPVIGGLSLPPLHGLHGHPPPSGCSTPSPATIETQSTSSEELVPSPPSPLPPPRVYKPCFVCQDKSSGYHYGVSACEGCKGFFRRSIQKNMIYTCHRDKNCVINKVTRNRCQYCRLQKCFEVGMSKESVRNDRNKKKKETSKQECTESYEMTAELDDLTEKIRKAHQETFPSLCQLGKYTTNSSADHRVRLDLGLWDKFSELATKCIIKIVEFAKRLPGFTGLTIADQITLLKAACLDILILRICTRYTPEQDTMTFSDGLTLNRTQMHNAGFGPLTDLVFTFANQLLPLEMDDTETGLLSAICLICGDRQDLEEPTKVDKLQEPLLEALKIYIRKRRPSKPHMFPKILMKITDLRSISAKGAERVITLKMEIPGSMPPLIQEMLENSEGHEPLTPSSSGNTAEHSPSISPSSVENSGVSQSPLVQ
# RAR β [2] = target: T1, RAR β; assay: RAR β Kd; format: binding; details: last item of cell EC50/(EFFICACY)/Kd
# CYP26A (P450RAI-1) = target: T2, CYP26A (P450RAI-1) (Homo sapiens, UniProt O43174); assay: Cell-based inhibition of RA metabolism in CYP26A stably transfected HeLa cells; details: stably transfected HeLa cells, [3H]-RA, 3 hours at 37° C.; read-out: P450RAI-1 Whole cell IC50
# T2 construct: expressed in transfected cells; host or cells: HeLa
# T2 sequence (O43174 1-497): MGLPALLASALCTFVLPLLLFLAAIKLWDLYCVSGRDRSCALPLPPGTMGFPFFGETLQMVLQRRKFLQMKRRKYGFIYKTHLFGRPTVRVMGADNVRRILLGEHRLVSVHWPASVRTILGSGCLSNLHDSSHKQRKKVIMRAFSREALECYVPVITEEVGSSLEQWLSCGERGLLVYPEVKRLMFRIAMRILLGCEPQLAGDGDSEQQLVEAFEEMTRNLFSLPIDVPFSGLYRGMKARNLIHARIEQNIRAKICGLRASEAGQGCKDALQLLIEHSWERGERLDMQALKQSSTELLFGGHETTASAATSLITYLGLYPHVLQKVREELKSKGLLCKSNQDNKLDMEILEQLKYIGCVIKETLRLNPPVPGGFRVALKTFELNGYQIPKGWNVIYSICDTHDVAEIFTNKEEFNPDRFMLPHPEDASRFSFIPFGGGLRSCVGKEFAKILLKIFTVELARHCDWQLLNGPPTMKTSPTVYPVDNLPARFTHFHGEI
# In short: (§1)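 Stably transfected HeLa cells (5×10^5/well) in MEM with 10% FBS and 0.05 μCi [3H]-RA, compounds at 10, 1 or 0.1 μM final, 3 h at 37° C. Retinoids extracted by modified Bligh-Dyer (methylene chloride); aqueous radioactivity counted; ID50 for 50% inhibition of RA metabolism derived from log-transformed data.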
# CYP26B (P450RAI-2) = target: T3, CYP26B (P450RAI-2) (Homo sapiens, UniProt Q9NR63); assay: Cell-based inhibition of RA metabolism in CYP26B stably transfected HeLa cells; details: stably transfected HeLa cells, [3H]-RA, 3 hours at 37° C.; read-out: P450RAI-2 Whole cell IC50
# T3 construct: expressed in transfected cells; host or cells: HeLa
# T3 sequence (Q9NR63 1-512): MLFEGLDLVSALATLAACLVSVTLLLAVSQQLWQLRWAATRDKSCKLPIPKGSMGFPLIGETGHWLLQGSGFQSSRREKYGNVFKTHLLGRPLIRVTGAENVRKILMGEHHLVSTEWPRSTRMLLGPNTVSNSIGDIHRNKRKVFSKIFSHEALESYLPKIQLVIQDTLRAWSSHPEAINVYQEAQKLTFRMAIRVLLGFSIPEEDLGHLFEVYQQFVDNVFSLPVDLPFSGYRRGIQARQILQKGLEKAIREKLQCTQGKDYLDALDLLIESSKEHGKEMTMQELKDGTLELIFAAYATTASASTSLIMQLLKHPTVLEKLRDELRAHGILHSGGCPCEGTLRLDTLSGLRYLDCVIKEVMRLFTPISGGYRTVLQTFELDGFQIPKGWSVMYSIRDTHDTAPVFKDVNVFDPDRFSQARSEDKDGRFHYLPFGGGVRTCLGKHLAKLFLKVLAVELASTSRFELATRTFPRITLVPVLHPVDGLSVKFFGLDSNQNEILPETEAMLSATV
# In short: as §1
# RAR α [3] = target: T4, RAR α (Homo sapiens, UniProt P10276); assay: RAR α EC50/(efficacy); format: cell-based; details: for RAR α (EFFICACY): value in brackets of cell EC50/(EFFICACY)/Kd; for EC50: first item of cell EC50/(EFFICACY)/Kd
# T4 sequence (P10276 1-462): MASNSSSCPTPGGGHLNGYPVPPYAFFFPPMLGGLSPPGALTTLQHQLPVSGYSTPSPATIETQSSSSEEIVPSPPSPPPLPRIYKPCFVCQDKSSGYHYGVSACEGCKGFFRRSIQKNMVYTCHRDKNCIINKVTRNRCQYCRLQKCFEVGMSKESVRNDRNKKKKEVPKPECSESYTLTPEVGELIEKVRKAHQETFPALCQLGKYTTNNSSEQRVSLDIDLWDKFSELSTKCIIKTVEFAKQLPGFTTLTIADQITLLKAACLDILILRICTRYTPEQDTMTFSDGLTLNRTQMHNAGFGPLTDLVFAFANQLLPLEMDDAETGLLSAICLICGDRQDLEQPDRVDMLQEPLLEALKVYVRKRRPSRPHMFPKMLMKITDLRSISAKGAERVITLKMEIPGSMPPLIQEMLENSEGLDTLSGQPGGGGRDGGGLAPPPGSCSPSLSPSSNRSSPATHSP
# RAR γ [4] = target: T5, RAR γ (Homo sapiens, UniProt P13631); assay: RAR γ Kd; format: binding; details: last item of cell EC50/(EFFICACY)/Kd
# T5 sequence (P13631 1-454): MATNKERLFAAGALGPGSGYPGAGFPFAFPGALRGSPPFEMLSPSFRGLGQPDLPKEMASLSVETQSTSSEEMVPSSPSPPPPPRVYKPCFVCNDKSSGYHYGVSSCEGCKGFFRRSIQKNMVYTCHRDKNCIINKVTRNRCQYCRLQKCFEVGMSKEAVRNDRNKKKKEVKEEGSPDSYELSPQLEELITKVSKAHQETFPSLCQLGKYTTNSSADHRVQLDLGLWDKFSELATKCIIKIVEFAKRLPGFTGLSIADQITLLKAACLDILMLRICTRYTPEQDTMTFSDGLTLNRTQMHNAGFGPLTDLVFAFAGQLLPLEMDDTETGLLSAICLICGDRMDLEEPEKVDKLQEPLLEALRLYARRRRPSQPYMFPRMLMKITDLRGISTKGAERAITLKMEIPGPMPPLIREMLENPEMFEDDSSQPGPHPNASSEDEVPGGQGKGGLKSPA
# RAR α [5] = target: T4, RAR α; assay: RAR α Kd; format: binding; details: last item of cell EC50/(EFFICACY)/Kd
# RAR γ [6] = target: T5, RAR γ; assay: RAR γ EC50/(efficacy); format: cell-based; details: for EC50: first item of cell EC50/(EFFICACY)/Kd; for RAR γ (EFFICACY): value in brackets of cell EC50/(EFFICACY)/Kd
Compound,EC50 (RAR β [1]),RAR β (EFFICACY) (RAR β [1]),Kd (RAR β [2]),IC50 (CYP26A (P450RAI-1)),IC50 (CYP26B (P450RAI-2)),RAR α (EFFICACY) (RAR α [3]),Kd (RAR γ [4]),Kd (RAR α [5]),EC50 (RAR γ [6]),RAR γ (EFFICACY) (RAR γ [6]),EC50 (RAR α [3])
"C#CCc1c(C)c(C#Cc2ccc(CC(=O)O)cc2)cc(C(C)(C)C)c1OC(C)C [Compound 47, [4-(5-tert-Butyl-4-isopropoxy-2-methyl-3-prop-2-ynyl-phenylethynyl)-phenyl]-acetic acid]",0.038 µM,59,4.47 µM,0.1 µM,8.8 µM,10,1.95 µM,2.24 µM,0.125 µM,66,
"CC(C)OC(=O)c1ccc(C#Cc2ccc(CC(=O)O)cc2)cc1CN(C)C1CC1 [Compound 38, 4-(4-Carboxymethyl-phenylethynyl)-2-[(cyclopropyl-methyl-amino)-methyl]-benzoic acid isopropyl ester]",,,> 10 µM,4 µM,> 10 µM,10,> 10 µM,> 10 µM,,,
"CC(C)c1cc(C(=O)Oc2ccc(/C=C/C(=O)O)cc2)cc2c1OC(C)(C)CC2(C)C [Compound 16, 8-Isopropyl-2,2,4,4-tetramethyl-chroman-6-carboxylic acid 4-(2-carboxy-vinyl)-phenyl ester]",,35,0.81 µM,0.3 µM,> 10 µM,~5,> 10 µM,3.08 µM,,~5,
"CC1(C)CC2(CC2)Oc2c(C3CC3)cc(NC(=O)Nc3ccc(C(=O)O)cc3)cc21 [Compound 5, 4-{3-[8-Cyclopropyl-3,3-dihydro-4,4-dimethylspiro(2H-1-benzopyran-2,2′-cyclopropane)-6-yl]-ureido}-benzoic acid]",0.32 µM,55,4.54 µM,> 10 µM,0.45 µM,,> 10 µM,> 10 µM,,15,
"C=Cc1c(C)c(C#Cc2ccc(CC(=O)O)cc2)cc(C(C)(C)C)c1OC(C)C [Compound 46, [4-(5-tert-Butyl-4-isopropoxy-2-methyl-3-vinyl-phenylethynyl)-phenyl]-acetic acid]",0.01 µM,75,0.045 µM,0.7 µM,> 10 µM,67,0.215 µM,0.085 µM,0.007 µM,65,0.065 µM
"C#Cc1c(C)c(C#Cc2ccc(CC(=O)O)cc2)cc(C(C)(C)C)c1OC(C)C [Compound 45, [4-(5-tert-Butyl-3-ethynyl-4-isopropoxy-2-methyl-phenylethynyl)-phenyl]-acetic acid]",0.018 µM,55,0.076 µM,0.7 µM,> 10 µM,52,0.255 µM,0.0099 µM,0.031 µM,68,0.118 µM
"CCOC(=O)C1=CCC(C)(C)c2cc(C#Cc3ccc(CC(=O)O)c(F)c3)ccc21 [Compound 60, 6-(4-Carboxymethyl-3-fluoro-phenylethynyl)-4,4-dimethyl-3,4-dihydro-naphthalene-1-carboxylic acid ethyl ester]",,60,3.96 µM,0.06 µM,2.6 µM,,8.99 µM,6.32 µM,,15,
"CN(c1cccc(C#Cc2ccc(/C=C/C(=O)O)cc2)c1)C1CC1 [Compound 37, (E)-3-{4-[3-(Cyclopropyl-methyl-amino)-phenylethynyl]-phenyl}-acrylic acid]",,70,7.02 µM,> 10 µM,0.5 µM,10,> 10 µM,> 10 µM,,15,
CC1(C)CC2(CC2)Oc2c(C3CC3)cc(C#Cc3ccc(/C=C(\Cl)C(=O)O)cc3)cc21 [Compound 4],,20,> 10 µM,0.12 µM,> 10 µM,,> 10 µM,> 10 µM,,15,
C/C(=C\c1ccc(C#Cc2cc(C3CC3)c3c(c2)C(C)(C)CC2(CC2)O3)cc1)C(=O)O [Compound 3],,15,0.52 µM,0.25 µM,> 10 µM,,6.04 µM,> 10 µM,,10,
